Measurements reported in PMC6085350, “Small molecule inhibitors of RAS-effector protein interactions derived using an intracellular antibody fragment” (Nature Communications, 2018).
In brackets after ≈: the same amount, converted by molar mass.

Columns and labels:
[1] = target: T1, HRAS^G12V interacting with PI3Kα, PI3Kγ, CRAF-RBD or full-length CRAF and RALGDS-RBD (Homo sapiens, UniProt P01112, G12V); experiment: BRET2 RAS-effector PPI assay, HRAS G12V; assay type: cell-based; details: HEK293T, 5, 10 and 20 μM
T1 construct: Transfection vector encoded full-length RAS was fused to the donor molecule RLuc8; expressed in transfected cells; host or cells: HEK293T
Excerpt: (§1) Fig. 4 Abd-7 disrupting RAS-effector interactions. HEK293T cells were transfected with different BRET-based RAS biosensor expression vectors to evaluate the inhibition of RAS PPI in cells by compound Abd-7. Transfection vector encoded full-length RAS was fused to the donor molecule RLuc8 and the effectors fused to the acceptor molecule GFP[2]. a Effect of Abd-2 and Abd-7 on KRAS^G12D interaction with PI3Kα, PI3Kγ, CRAF or RALGDS. The BRET signal is plotted as a % of control cells treated with DMSO only and dose response to 5, 10 and 20 μM of each compound. b Effect of Abd-2 and Abd-7 on the BRET signal from interaction of KRAS^G12 mutants (Rluc8-KRAS^G12) and full-length CRAF (GFP[2]-CRAF FL). c, d Effect of Abd-2 and Abd-7 on the interaction of NRAS^Q61H (c) and HRAS^G12V (d) with various RAS effectors domain and with full-length CRAF. The BRET ratio corresponds to the light emitted by the GFP[2] acceptor constructs (515 nm ± 30) upon addition of Coelenterazine 400a divided by the light emitted by the RLuc8 donor constructs (410 nm ± 80). The normalized BRET ratio is the BRET ratio normalized to the DMSO negative and calculated as follows: (BRETcompound/BRETDMSO) x 100, where BRETcompound corresponds to the BRET ratio for the compound-treated cells, BRETDMSO to the DMSO-treated cells. Each experiment was repeated at least three times. […]

[2] = target: T2, NRAS^Q61H interacting with PI3Kα, PI3Kγ, CRAF-RBD or full-length CRAF and RALGDS-RBD (Homo sapiens, UniProt P01111, Q61H); experiment: BRET2 RAS-effector PPI assay, NRAS Q61H; assay type: cell-based; details: HEK293T, 5, 10 and 20 μM
T2 construct: Transfection vector encoded full-length RAS was fused to the donor molecule RLuc8; expressed in transfected cells; host or cells: HEK293T
Excerpt: as §1

Solubility = assay type: physicochemical

Row | effect on BRET signal, HRAS^G12V with effectors [1] | effect on BRET signal, NRAS^Q61H with effectors [2] | solubility (Solubility) [µM] | Structure (SMILES)
1 | does not | does not | 446 (≈ 116 µg/mL) | O=C(NCC1COc2ccccc2O1)c1ccco1 (centres unmarked) [Abd-2]
2 | interferes | interferes |  | COc1nc(-c2cccc3c2OCCO3)ccc1Nc1ccc(CN(C)C)cc1 [Abd-7]
